Target: T1, Stat5a (Homo sapiens, UniProt P42229)
T1 sequence (P42229 1-794): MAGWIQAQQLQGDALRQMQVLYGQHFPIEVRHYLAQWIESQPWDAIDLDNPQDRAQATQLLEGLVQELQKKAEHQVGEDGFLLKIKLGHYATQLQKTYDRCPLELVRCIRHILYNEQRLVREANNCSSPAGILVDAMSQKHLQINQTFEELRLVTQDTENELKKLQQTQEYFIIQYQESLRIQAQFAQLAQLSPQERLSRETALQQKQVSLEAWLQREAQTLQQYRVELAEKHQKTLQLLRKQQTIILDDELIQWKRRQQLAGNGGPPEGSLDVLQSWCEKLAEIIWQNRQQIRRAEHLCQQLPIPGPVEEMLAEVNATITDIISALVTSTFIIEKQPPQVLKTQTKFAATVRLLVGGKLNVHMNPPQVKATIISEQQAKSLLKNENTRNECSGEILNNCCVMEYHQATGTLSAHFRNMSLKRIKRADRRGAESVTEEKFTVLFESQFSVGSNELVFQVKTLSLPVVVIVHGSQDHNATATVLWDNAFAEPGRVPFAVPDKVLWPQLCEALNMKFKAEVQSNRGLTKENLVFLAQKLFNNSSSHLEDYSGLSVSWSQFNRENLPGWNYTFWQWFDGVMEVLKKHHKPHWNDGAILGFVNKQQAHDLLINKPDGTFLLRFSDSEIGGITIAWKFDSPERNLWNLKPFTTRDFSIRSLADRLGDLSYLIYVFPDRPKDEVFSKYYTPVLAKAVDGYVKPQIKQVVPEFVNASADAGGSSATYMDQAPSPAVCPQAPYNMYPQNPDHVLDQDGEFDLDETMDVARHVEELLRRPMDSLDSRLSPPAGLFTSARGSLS
Assay: Stat5a dimerization (FLAG-/MYC-tagged Stat5a co-immunoprecipitation) in PC-3 cells
Format: cell-based
Set-up: expressed in transfected cells; host or cells: PC-3 human prostate cancer cells
Details: 2 hours pretreatment, then hPrl 10 nM 30 minutes
Experimental: (§1) FLAG-tagged Stat5a and MYC-tagged Stat5a were generated by standard molecular biology cloning techniques. Plasmid pCMV3-FLAG-Stat5a, pCMV3-MYC-Stat5a and pPr1R were co-transfected using FuGENE6 (Roche) into PC-3 cells (2 μg of each plasmid per 1×10^7 cells). The cells were starved for 20 hours, pretreated with test compound for 2 hours, then stimulated with hPrl (10 nM) in RPMI 1640 without serum for 30 minutes. The cell lysates were immunoprecipitated with 25 μl anti-FLAG M2 […] affinity gel (2 μg/ml, Sigma), anti-MYC pAb (1 μg/ml, Upstate) or normal rabbit serum (NRS). The primary antibodies were used in the immunoblottings at the following concentrations: anti-FLAG pAb (1:1000; Stratagene), anti-MYC mAb (1:1000; Sigma), anti-Stat5a/b mAb (1:250) (Transduction Laboratories) detected by horseradish peroxidase-conjugated secondary antibodies. The results are shown in FIG. 3A for Compound 1 and FIG. 3B for Compound 2.
Lanes 1, 2, 4, 6 and 8 represent cells stimulated with human prolactin (Prl) for 30 minutes which induces dimerization of Stat5. Two hours prior to Prl-stimulation, the cells had been treated with DMSO (lanes 1-4), the control compound C5 (lanes 7 and 8) and either Compound 1 (lanes 5 and 6 in FIG. 3A) or Compound 2 (lanes 5 and 6 in FIG. 3B). […] It should be noted the drug effect in this study was not due to cell apoptosis induction, as the treatment time was only 2 hours. Treatment of at least 48 hours is required for the compound to induce prostate cancer cell apoptosis.
as §1, with “and pPrlR” for “and pPr1R”, “hours, pre-treated” for “hours, pretreated”, “with NBPP” for “with test compound”, “2 h,” for “2 hours,”, “antibodies.” for “antibodies. The results are shown in FIG. 3A for Compound 1 and FIG. 3B for Compound 2.”
Lanes 1, 2, 4, 6 and 8 represent cells stimulated with human prolactin (Prl) for 30 minutes which induces dimerization of Stat5. Two hours prior to Prl-stimulation, the cells had been treated with DMSO (lanes 1-4), the control compound C5 (lanes 5 and 6) or NBPP (lanes 7 and 8) to test whether the Stat5a/b-inhibitor compound, NBPP, would be able to inhibit dimerization of StatS. […] It should be noted the drug effect in this study was not due to cell apoptosis induction, as the treatment time was only 2 hours. Treatment of at least 48 hours is required for the compound to induce prostate cancer cell apoptosis.
FLAG-tagged Stat5a and MYC-tagged Stat5a were generated by standard molecular biology cloning techniques.as follows. […] The primary antibodies were used in the immunoblottings at the following concentrations: anti-FLAG pAb (1:1000; Stratagene), anti-MYC mAb (1:1000; Sigma), anti-Stat5a/b mAb (1:250) (Transduction Laboratories) detected by horseradish peroxidase-conjugated secondary antibodies. […]

Compound	effect on Stat5a dimerization
OC[C@H]1O[C@@H](n2cnc3c(N4CCc5ccccc5C4)ncnc32)[C@H](O)[C@@H]1O [Compound 1, (2R,3R,4S,5R)-2-(6-(3,4-Dihydroisoquinolin-2(1H)-yl)-9H-purin-9-yl)-5-(hydroxymethyl)tetrahydrofuran-3,4-diol]	effectively inhibited Stat5a dimerization
OC[C@H]1O[C@@H](n2cnc3c(NNc4ccccc4)ncnc32)[C@H](O)[C@@H]1O [Compound 2, (2R,3S,4R,5R)-2-(hydroxymethyl)-5-(6-(2-phenylhydrazinyl)-9H-purin-9-yl)tetrahydrofuran-3,4-diol]	effectively inhibited Stat5a dimerization
OC[C@H]1O[C@@H](n2cnc3c(NCc4ccccc4)ncnc32)[C@H](O)[C@@H]1O [Compound N6BA, N^6-benzyladenosine]	effectively inhibited Stat5a dimerization
OC[C@H]1O[C@@H](n2ccc3c(NCc4ccccc4)ncnc32)[C@H](O)[C@@H]1O [NBPP, N-(phenylmethyl)-7-β-D-ribofuranosyl-7H-pyrrolo[2,3-d]pyrimidin-4-amine]	effectively inhibited Stat5a dimerization

Source: patent US20150209379A1, “TREATMENT OF PROSTATE CANCER AND HEMATOLOGIC NEOPLASMS” (THOMAS JEFFERSON UNIVERSITY, priority 2012, published 2015)
